From ChEMBL document CHEMBL1145481, “Molecular epidemiology of telithromycin-resistant pneumococci in Finland” (2007)

Legend:
[1] = test system: Streptococcus pneumoniae; assay: Antimicrobial activity against telithromycin-resistant Streptococcus pneumoniae 115 isolate with erm(B) resistance gene from patient ear by disk diffusion test; type: functional
[2] = test system: Streptococcus pneumoniae; assay: Antimicrobial activity against telithromycin-resistant Streptococcus pneumoniae 897 isolate with erm(B) resistance gene from patient bronchoalveolar lavage by disk diffusion test; type: functional, Lung
[3] = test system: Streptococcus pneumoniae; assay: Antimicrobial activity against telithromycin-resistant Streptococcus pneumoniae 237 isolate with erm(B) resistance gene from patient ear by disk diffusion test; type: functional
[4] = test system: Streptococcus pneumoniae; assay: Antimicrobial activity against telithromycin-resistant Streptococcus pneumoniae 415 isolate with erm(B) resistance gene from patient blood by disk diffusion test; type: functional
[5] = test system: Streptococcus pneumoniae; assay: Antimicrobial activity against telithromycin-resistant Streptococcus pneumoniae 426 isolate with erm(B) resistance gene from patient sinuitis by disk diffusion test; type: functional
[6] = test system: Streptococcus pneumoniae; assay: Antimicrobial activity against telithromycin-resistant Streptococcus pneumoniae 427 isolate with erm(B) resistance gene from patient sinuitis by disk diffusion test; type: functional
[7] = test system: Streptococcus pneumoniae; assay: Antimicrobial activity against telithromycin-resistant Streptococcus pneumoniae 443 isolate with erm(B) resistance gene from patient ear by disk diffusion test; type: functional
[8] = test system: Streptococcus pneumoniae; assay: Antimicrobial activity against telithromycin-resistant Streptococcus pneumoniae 460 isolate with erm(B) resistance gene from patient ear by disk diffusion test; type: functional
[9] = test system: Streptococcus pneumoniae; assay: Antimicrobial activity against telithromycin-resistant Streptococcus pneumoniae 547 isolate with erm(B) resistance gene from patient sinuitis by disk diffusion test; type: functional
[10] = test system: Streptococcus pneumoniae; assay: Antimicrobial activity against telithromycin-resistant Streptococcus pneumoniae 552 isolate with erm(B) resistance gene from patient sinuitis by disk diffusion test; type: functional
[11] = test system: Streptococcus pneumoniae; assay: Antimicrobial activity against telithromycin-resistant Streptococcus pneumoniae 683 isolate with erm(B) resistance gene from patient sputum by disk diffusion test; type: functional
[12] = test system: Streptococcus pneumoniae; assay: Antimicrobial activity against telithromycin-resistant Streptococcus pneumoniae 811 isolate with erm(B) resistance gene from patient blood by disk diffusion test; type: functional
[13] = test system: Streptococcus pneumoniae; assay: Antimicrobial activity against telithromycin-resistant Streptococcus pneumoniae 833 isolate with erm(B) resistance gene from patient sinuitis by disk diffusion test; type: functional
[14] = test system: Streptococcus pneumoniae; assay: Antimicrobial activity against telithromycin-resistant Streptococcus pneumoniae 859 isolate with erm(B) resistance gene from patient bronchoalveolar lavage by disk diffusion test; type: functional, Lung
[15] = test system: Streptococcus pneumoniae; assay: Antimicrobial activity against telithromycin-resistant Streptococcus pneumoniae 918 isolate with erm(B) resistance gene from patient eye by disk diffusion test; type: functional
[16] = test system: Streptococcus pneumoniae; assay: Antimicrobial activity against telithromycin-resistant Streptococcus pneumoniae 981 isolate with erm(B) resistance gene from patient blood by disk diffusion test; type: functional
[17] = test system: Streptococcus pneumoniae; assay: Antimicrobial activity against telithromycin-resistant Streptococcus pneumoniae 1016 isolate with erm(B) resistance gene from patient blood by disk diffusion test; type: functional
[18] = test system: Streptococcus pneumoniae; assay: Antimicrobial activity against telithromycin-resistant Streptococcus pneumoniae 1017 isolate with erm(B) resistance gene from patient ear by disk diffusion test; type: functional
[19] = test system: Streptococcus pneumoniae; assay: Antimicrobial activity against telithromycin-resistant Streptococcus pneumoniae 1022 isolate with erm(B) resistance gene from patient ear by disk diffusion test; type: functional
[20] = test system: Streptococcus pneumoniae; assay: Antimicrobial activity against telithromycin-resistant Streptococcus pneumoniae 1041 isolate with erm(B) resistance gene from patient blood by disk diffusion test; type: functional
[21] = test system: Streptococcus pneumoniae; assay: Antimicrobial activity against telithromycin-resistant Streptococcus pneumoniae 1051 isolate with erm(B) resistance gene from patient ear by disk diffusion test; type: functional
[22] = test system: Streptococcus pneumoniae; assay: Antimicrobial activity against telithromycin-resistant Streptococcus pneumoniae 838 isolate with erm(B) and mef(E) resistance gene from patient ear by disk diffusion test; type: functional
[23] = test system: Streptococcus pneumoniae; assay: Antimicrobial activity against telithromycin-resistant Streptococcus pneumoniae 759 isolate with erm(B) resistance gene from patient ear by disk diffusion test; type: functional
[24] = test system: Streptococcus pneumoniae; assay: Antimicrobial activity against telithromycin-resistant Streptococcus pneumoniae 837 isolate with mutation in erm(B), mef(E), L4 Ser20Asn mutant gene from patient sputum by disk diffusion test; type: functional
[25] = test system: Streptococcus pneumoniae; assay: Antimicrobial activity against telithromycin-resistant Streptococcus pneumoniae 326 isolate with erm(B) resistance gene from patient blood by disk diffusion test; type: functional
[26] = test system: Streptococcus pneumoniae; assay: Antimicrobial activity against telithromycin-resistant Streptococcus pneumoniae 376 isolate with erm(B) resistance gene from patient ear by disk diffusion test; type: functional

Measured: Activity

CC[C@H]1OC(=O)[C@H](C)[C@@H](O[C@H]2C[C@@](C)(OC)[C@@H](O)[C@H](C)O2)[C@H](C)[C@@H](O[C@@H]2O[C@H](C)C[C@H](N(C)C)[C@H]2O)[C@](C)(O)C[C@@H](C)C(=O)[C@H](C)[C@@H](O)[C@]1(C)O [ERYTHROMYCIN]
129 µg/mL: all assays above

CN(C)[C@@H]1C(O)=C(C(N)=O)C(=O)[C@@]2(O)C(O)=C3C(=O)c4c(O)cccc4[C@@](C)(O)[C@H]3C[C@@H]12 [TETRACYCLINE]
16 µg/mL: [12]
64 µg/mL: [1] | [2] | [24]
0.5 µg/mL: [26]
32 µg/mL: all other assays above
